Reference: article PMC9951290, “Comprehensive Structure–Activity Relationship Studies of Cepafungin Enabled by Biocatalytic C–H Oxidations” (ACS Central Science, 2023)

Tested on: 20S proteasome subunits
Experiment: Competitive in situ LC-MS/MS pull-down with alkyne probe S10 and 1 (Figure S1, Table S3)
Assay type: cell-based, human
Details: 100 nM 1 versus 10 μM S10, RPMI 8226; targets: 20S proteasome subunits β5, β2i, α5, β1, β2
Method: To determine the targets of cepafungin I in human MM cells through chemoproteomics, a clickable analogue (S10) was designed with alkyne functionality distal to the reactive macrocycle (i.e., at the end of the fatty acid chain). The synthesis of S10 proceeded in a similar fashion as in Scheme 2B except with the tail fragment built from initial alkyne substitution of 6-bromo-1-hexanol. […] To identify these targets, a competitive in situ LC-MS/MS-based pull-down experiment was performed using alkyne probe S10 and 1. Following live cell treatment with just the probe or the probe together with the natural product, alkyne conjugation to biotin-azide and pull-down with streptavidin beads, the probe analogue enriched 764 proteins from RPMI 8226. […] These targets were identified as the 20S proteasome subunits β5, β2i, α5, β1, and β2, highlighting cepafungin’s exceptional selectivity for the proteasome in MM cells (Figure S1 and Table S3). […] The “i” suffix here denotes subunits of the immunoproteasome, which is produced by most cells exposed to oxidative stress or proinflammatory cytokines and also by immune cells at especially high baseline levels.[37] […]
fluorescence was read at A360ex/A460em. […]
in DMSO) or DMSO and cultured for 48 hours. Toxicity was determined using the WST-1 assay (Roche) according to the protocol of the manufacturer. […]

CC(C)CCCCCC=CC=CC(=O)NC(C(=O)NC1CC(O)CCNC(=O)C=CC(C)NC1=O)C(C)O (stereo not shown) [compound 1, cepafungin I]
number of enriched proteins competed >50%: 5 proteins
